The numbers were not newly measured in patent US7655753B2, “Conjugate” (PhotoBiotics Limited, priority 2001, dated 2010), which cites them from elsewhere.

Series [1] relates to Barrett's oesophagus cancer. To be noted: clinical PDT, systemic administration.
Series [2] relates to Basal cell cancer of skin. Conditions: clinical PDT, topical administration.
Series [3] deals with Oral cancer. To be noted: clinical PDT, over 5-53 months.
Series [4] deals with Chest wall recurrence in breast cancer. Conditions: clinical PDT.
Series [5] relates to Bladder cancer. Conditions: clinical PDT.
Series [6] has as its system Barrett's mucosal cancer. Conditions: clinical PDT.

As to `NCC(=O)CCC(=O)O` [ALA, 5-aminolaevulanic acid], the High-grade dysplasia outcome in series [1] is reported as “eradicated in all patients”. Besides, the complete response in series [2] is 90% complete response.
Take `Oc1cccc(-c2c3nc(c(-c4cccc(O)c4)c4ccc([nH]4)c(-c4cccc(O)c4)c4nc(c(-c5cccc(O)c5)c5ccc2[nH]5)CC4)C=C3)c1` [Foscan, meta-tetrahydroxyphenyl chlorin]: for the setting “in vivo”, the “skin photosensitivity (duration)” value is “about 2 weeks”.
For Dihematoporphyrin ether, the complete response in series [3] is listed as 87% complete response. Further, in series [4], the complete response was 20% complete response, and the partial response is 45% partial response.
In the case of Hematoporphyrin derivative, in series [5], the “alive after 5 years” value was 30% alive after 5 years and the complete response is on record as 74% complete response,.
Regarding porfimer sodium, under “leading to skin photosensitivity”, the “persistence in the body” value is reported as “weeks”. Further, in series [6], the “conversion to normal epithelium” value is on record as 75% conversion to and the tumour outcome was “tumours eliminated”.
